Patent publication US6809085B1, “Adherent N,O-Carboxymethylchitosan drug delivery devices for moist tissue and methods of their use” (Chitogenics, Inc., priority 1999, dated 2004)
Counter-ions that a name gives are not always drawn. Like-named read-outs stand apart in the source and are kept apart here.

Type: in vitro ADME, rabbit
Protocol: Previously harvested pieces of rabbit large bowel (surface area 1.767 cm^2) were mounted in an Improved Franz Diffusion Cell containing 0.9% saline (13ml) as the receptor medium. The vaginal cream of Example 3 (1.0 g) was applied directly to the rabbit tissue; the experiments were performed in triplicate.
Aliquots of 1.0 ml (which were replaced with fresh saline solution) were withdrawn from the receptor chamber at 1, 3, 6, 20, 24, 48 hours. LN in samples was quantified using high performance liquid chromatography (Hewlett Packard, model 1090,series II, fitted with Hypersil C18, 5 μm, 25 cm×4.6 mm column, a UV detector set at 241 nm and an acetonitrile(80%)-water(20%) mobile phase).
Accurately weighed portions of the LN-vaginal cream as well as the cream recovered from the diffusion cells were extracted with 20 ml methanol for 16 hr on a wrist-action shaker and analyzed. […] The replicate results along with an average are plotted.
The permeation studies were conducted as described in Example 12 except that the HPLC analysis was modified; a Spectra Physics, Model SP8800, fitted with Alltima phenyl, 5 micron, 15 cm×4.6 mm column, and a UV detector set at 223 nm was used with an acetonitrile (40%)-0.1% phosphoric acid mobile phase. […]

## CC(=O)O.CC(=O)O.NC(=N\CCCCCC/N=C(N)/N=C(\N)Nc1ccc(Cl)cc1)/N=C(\N)Nc1ccc(Cl)cc1 [chlorhexidine diacetate]
  average permeation rate through the mucosal tissue: 160.8 μg/cm^2/hr

## C#C[C@]1(O)CC[C@H]2[C@@H]3CCC4=CC(=O)CC[C@@H]4[C@H]3CC[C@@]21CC [levonorgestrel]
  concentration of LN in the cream recovered following the permeation study: 3.101 ± 0.315 mg/g
rabbit, 48 h, 3 mg/g
  amount of levonorgestrel released through normal tissue: less than 0.5%
  permeation rate of hormone that diffused through the tissue from the cream: 0.163±0.010 μg/cm^2/hr

## CN(C)CCC(c1ccc(Cl)cc1)c1ccccn1 (stereo not shown) [chlorpheniramine maleate]
rabbit, 48 h, 5 mg per pellet
  average permeation rate through the mucosal tissue: 97.3 μg/cm^2/hr
rabbit, 48 h, 10 mg per pellet
  average permeation rate through the mucosal tissue: 182 μg/cm^2/hr

## CC(C)(C)NC[C@H](O)COc1nsnc1N1CCOCC1 [timolol maleate]
rabbit, 24 h
  average permeation rate through the mucosal tissue: 103.8 μg/cm^2/hr
